Measured values taken from US20040167188A1, “Protein-tyrosine phosphatase inhibitors and uses thereof” (priority 2003, published 2004).
Like-named read-outs stand apart in the source and are kept apart here.

How the values were obtained:
[1] = target: T1, SHP-2 (full length) (Homo sapiens, UniProt Q06124); assay: Inhibition constant determination, selectivity panel: SHP-2 (pNPP hydrolysis); assay type: biochemical; conditions: competitive Ki; pNPP substrate; read-out: Phosphatase Inhibition Constants (Kic) SHP-2
T1 sequence (Q06124 1-593): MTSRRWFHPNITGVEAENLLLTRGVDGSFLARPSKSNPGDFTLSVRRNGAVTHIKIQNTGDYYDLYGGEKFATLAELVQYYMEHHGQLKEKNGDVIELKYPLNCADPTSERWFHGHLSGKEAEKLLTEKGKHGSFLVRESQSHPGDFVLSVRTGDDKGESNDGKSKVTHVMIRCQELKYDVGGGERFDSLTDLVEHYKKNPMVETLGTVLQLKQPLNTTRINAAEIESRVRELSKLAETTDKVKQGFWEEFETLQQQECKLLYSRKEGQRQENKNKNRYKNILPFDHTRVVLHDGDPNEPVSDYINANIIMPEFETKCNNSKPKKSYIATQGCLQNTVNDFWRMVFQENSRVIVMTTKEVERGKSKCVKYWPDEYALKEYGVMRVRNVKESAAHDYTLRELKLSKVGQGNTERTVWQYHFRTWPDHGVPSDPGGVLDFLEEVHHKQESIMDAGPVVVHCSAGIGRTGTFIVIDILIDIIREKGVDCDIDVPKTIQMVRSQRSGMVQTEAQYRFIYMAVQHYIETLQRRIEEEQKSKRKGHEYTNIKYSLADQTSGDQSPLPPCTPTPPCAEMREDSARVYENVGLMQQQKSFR
Procedure: Cells were lysed with a French press following by centrifugation to remove debris. Proteins were precipitated with 50% saturated ammonium sulfate, recovered by centrifugation, and chromatographed on Sephadex G-25 (Amersham Pharmacia Biotech) in 50 mM Tris-HCl pH 8, 10 mM NaCl, 1 mM DTT, 1 mM EDTA. The void volume was pooled and chromatographed on Q-Sepharose-FF in the same buffer, and SHP-2 was eluted with a 0-150 mM gradient of NaCl in the same buffer. Fractions were assayed, pooled, and stored as described for PTP1B.
(§1) The Kic and Kiu values are calculated as described for PTP1B. The assays were performed as described for PTP-1B except for the following changes. All the phosphatases except PP2B use the same 2× assay buffer as PTP1B. PP2B uses a 2× assay buffer which contains 100 mM TRIS-HCl pH 8.6, 40 mM MgCl2, 0.2 mM CaCl2, 6 mM DTT, 0.2 mg/mL BSA. The concentrations of pNPP present in 40 ul were the same for TCPTP, CD45, LAR and PTP1B. For PP2B they were 24 mM, 60 mM, 150 mM, and 375 mM; for cdc25C they were 16 mM, 40 mM, 100 mM, and 250 mM; for SHP-2 they were 6.4 mM, 16 mM, 40 mM, and 100 mM.

[2] = target: T2, LAR (Homo sapiens, UniProt P10586); assay: Inhibition constant determination, selectivity panel: LAR (pNPP hydrolysis); assay type: biochemical; conditions: competitive Ki; pNPP substrate; read-out: Phosphatase Inhibition Constants (Kic) LAR
T2 construct: purchased New England Biolabs P0750L
T2 sequence (P10586 1301-1639 limits assumed): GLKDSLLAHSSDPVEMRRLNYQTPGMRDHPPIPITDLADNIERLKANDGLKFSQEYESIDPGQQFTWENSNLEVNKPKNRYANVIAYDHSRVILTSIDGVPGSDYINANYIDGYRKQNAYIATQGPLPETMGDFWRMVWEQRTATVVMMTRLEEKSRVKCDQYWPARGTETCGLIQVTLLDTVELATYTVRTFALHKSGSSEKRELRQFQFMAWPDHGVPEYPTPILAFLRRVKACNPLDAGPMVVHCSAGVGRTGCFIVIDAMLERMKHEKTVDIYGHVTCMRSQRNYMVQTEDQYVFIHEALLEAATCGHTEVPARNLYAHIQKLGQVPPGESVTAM

[3] = target: T3, CD45 (Homo sapiens, UniProt P08575); assay: Inhibition constant determination, selectivity panel: CD45 (pNPP hydrolysis); assay type: biochemical; conditions: competitive Ki; pNPP substrate; read-out: Phosphatase Inhibition Constants (Kic) CD45
T3 construct: purchased Biomol Research Laboratories, Inc. SE-135
T3 sequence (P08575 609-1306 limits assumed): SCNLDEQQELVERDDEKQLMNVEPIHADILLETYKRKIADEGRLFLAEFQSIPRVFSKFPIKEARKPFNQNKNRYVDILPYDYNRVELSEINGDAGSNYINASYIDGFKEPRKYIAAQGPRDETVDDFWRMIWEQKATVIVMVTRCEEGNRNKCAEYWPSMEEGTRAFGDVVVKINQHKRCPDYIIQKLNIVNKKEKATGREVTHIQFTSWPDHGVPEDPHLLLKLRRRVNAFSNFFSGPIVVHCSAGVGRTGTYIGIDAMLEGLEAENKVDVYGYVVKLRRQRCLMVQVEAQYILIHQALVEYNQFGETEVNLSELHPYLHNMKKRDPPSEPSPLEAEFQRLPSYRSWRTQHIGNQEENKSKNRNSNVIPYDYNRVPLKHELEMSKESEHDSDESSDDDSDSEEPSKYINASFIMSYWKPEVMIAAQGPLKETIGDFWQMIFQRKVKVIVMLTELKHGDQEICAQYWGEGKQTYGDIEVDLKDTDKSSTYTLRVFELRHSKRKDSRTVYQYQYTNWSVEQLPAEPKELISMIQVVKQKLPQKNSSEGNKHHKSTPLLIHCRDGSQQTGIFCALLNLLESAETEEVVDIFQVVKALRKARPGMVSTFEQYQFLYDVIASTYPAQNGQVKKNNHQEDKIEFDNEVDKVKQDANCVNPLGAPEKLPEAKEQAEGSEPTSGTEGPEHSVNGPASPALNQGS
Procedure: CD45 was obtained commercially (catalog#SE-135 Biomol Research Laboratories, Inc. 5120 Butler Pike, Plymouth Meeting, Pa.).
as §1

[4] = target: T4, Bovine PP2B (Bos taurus, UniProt P48452); assay: Inhibition constant determination, selectivity panel: PP2B (pNPP hydrolysis); assay type: biochemical; conditions: competitive Ki; pNPP substrate; read-out: Phosphatase Inhibition Constants (Kic) PP2B
T4 construct: purchased Sigma C1907
T4 sequence (P63099 2-170 partner limits assumed, other chains not shown): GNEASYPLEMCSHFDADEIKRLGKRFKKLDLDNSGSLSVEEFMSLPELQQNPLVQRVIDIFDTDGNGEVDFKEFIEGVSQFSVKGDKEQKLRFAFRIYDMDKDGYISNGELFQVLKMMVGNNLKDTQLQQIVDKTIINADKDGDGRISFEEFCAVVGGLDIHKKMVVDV
Procedure: Bovine PP2B was obtained commercially (C1907 Sigma, St. Louis, Mo.).
as §1

[5] = target: T5, CDC25c (fusion with glutathione-S-transferase) (Homo sapiens, UniProt P30307); assay: Inhibition constant determination, selectivity panel: cdc25c (pNPP hydrolysis); assay type: biochemical; conditions: competitive Ki; pNPP substrate; read-out: Phosphatase Inhibition Constants (Kic) Cdc25c
T5 sequence (P30307 1-473): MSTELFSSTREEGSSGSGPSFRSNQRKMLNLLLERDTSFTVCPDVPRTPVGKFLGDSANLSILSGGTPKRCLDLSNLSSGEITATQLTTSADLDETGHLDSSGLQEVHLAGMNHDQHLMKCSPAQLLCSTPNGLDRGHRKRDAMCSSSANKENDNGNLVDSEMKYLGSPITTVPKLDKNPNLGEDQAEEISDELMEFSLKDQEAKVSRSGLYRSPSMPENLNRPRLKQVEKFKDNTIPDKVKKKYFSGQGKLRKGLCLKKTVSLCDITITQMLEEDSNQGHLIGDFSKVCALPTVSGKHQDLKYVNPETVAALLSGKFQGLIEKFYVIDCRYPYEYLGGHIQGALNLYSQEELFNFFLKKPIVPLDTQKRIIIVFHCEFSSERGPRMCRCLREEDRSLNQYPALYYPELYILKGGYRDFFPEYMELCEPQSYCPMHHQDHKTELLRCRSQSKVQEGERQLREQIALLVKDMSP
Procedure: CDC25c was expressed as a fusion with glutathione-S— transferase (aka GST) in E. coli. Cells were lysed and debris removed as described for SHP-2, except lysis was in PBS (GibcoBRL Life Technologies, Grand Island, N.Y., Stock # 70011-044, diluted 10-fold). The soluble proteins were chromatographed on Glutathione-Sepharose FF (Amersham Pharmacia Biotech) and eluted with 10 mM reduced glutathione in 25 mM TRIS-HCl, pH 7.5, 150 mM NaCl. Fractions were assayed, pooled and stored as decribed for PTP1B.
as §1

[6] = target: T6, TCPTP (Homo sapiens, UniProt P17706); assay: biochemical
T6 sequence (P17706 1-283): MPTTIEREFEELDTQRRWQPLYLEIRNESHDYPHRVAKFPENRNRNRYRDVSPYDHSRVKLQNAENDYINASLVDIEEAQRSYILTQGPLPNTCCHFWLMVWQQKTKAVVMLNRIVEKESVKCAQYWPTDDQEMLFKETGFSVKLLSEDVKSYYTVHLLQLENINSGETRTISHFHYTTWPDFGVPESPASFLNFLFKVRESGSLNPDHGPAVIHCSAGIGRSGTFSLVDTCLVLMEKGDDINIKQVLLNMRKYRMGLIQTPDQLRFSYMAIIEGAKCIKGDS

[7] = target: T7, Human protein tyrosine phosphatase 1B (PTP1B, amino acid residues 1-321) (Homo sapiens, UniProt P18031); conditions: read-out: Phosphatase Inhibition Constants (Kic) PTP1B; competitive Ki, +/- S.D.; pNPP substrate
T7 sequence (P18031 1-321): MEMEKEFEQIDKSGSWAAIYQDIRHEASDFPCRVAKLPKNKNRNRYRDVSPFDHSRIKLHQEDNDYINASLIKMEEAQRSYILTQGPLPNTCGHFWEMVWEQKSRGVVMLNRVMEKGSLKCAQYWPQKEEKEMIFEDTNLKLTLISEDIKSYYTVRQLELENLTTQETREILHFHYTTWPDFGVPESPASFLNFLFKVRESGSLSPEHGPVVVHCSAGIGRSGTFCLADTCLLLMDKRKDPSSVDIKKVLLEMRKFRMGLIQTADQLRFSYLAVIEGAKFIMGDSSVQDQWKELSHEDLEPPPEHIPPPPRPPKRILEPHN

[8] = target: T6, TCPTP; conditions: read-out: Phosphatase Inhibition Constants (Kic) TC-PTP; competitive Ki, +/- S.D.; pNPP substrate

Ki [1] | Ki [2] | Ki [3] | Ki [4] | Ki [5] | Ki [6] | Ki [7] | Ki [8] | SMILES
> 300 µM | > 300 µM | > 300 µM | > 300 µM | > 300 µM | 202 µM | – | – | COC(=O)c1c(O)cccc1OC/C=C/c1cccc(-c2cc(C(=O)O)no2)c1 [Example 1, 5-(3-((1E)-3-(3-hydroxy-2-(methoxycarbonyl)phenoxy)prop-1-enyl)phenyl)isoxazole-3-carboxylic Acid]
> 300 µM | – | > 300 µM | > 300 µM | > 300 µM | – | 6.9 µM | 164 µM | COC(=O)c1c(O)cccc1OC/C=C/c1ccc(F)c(-c2cc(C(=O)O)no2)c1 [Example 8, 5-(2-fluoro-5-((1E)-3-(3-hydroxy-2-(methoxycarbonyl)phenoxy)prop-1-enyl)phenyl)isoxazole-3-carboxylic Acid]
